Patent publication US20130217702A1 (Richter Gedeon Nyrt., priority 2010, published 2013)

Legend:
[1] = molecular target: T1, recombinant human B1 receptors (Homo sapiens, UniProt P46663); test: Functional assay: antagonist potency by cytosolic calcium measurement (plate reader fluorimeter) in CHO-B1 cells, agonist LysDABK; assay type: cell-based; conditions: CHO-B1 cells, inhibition of LysDABK (EC80)-evoked [Ca2+]i elevation; read-out: B1 func.
T1 construct: host or cells: CHO (CHO-B1)
T1 sequence (P46663 1-353): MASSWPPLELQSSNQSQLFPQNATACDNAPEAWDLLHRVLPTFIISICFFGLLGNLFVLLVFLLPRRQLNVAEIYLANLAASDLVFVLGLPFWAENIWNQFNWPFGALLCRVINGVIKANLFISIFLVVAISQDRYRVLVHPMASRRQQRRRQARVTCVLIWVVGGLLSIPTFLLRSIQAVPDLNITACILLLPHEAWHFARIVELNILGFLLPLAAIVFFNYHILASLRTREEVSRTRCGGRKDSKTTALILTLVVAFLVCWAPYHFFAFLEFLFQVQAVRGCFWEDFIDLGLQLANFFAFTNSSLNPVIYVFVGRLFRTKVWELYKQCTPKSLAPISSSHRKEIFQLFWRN
Protocol: Assessment of Antagonist Potency at B1 Receptors In Vitro by Measurement of Cytosolic Calcium Ion Concentration with a Plate Reader Fluorimeter in Cells Expressing Recombinant Human B1 Receptors
Chinese hamster ovary (CHO) cells stably expressing recombinant human B1 (CHO-B1, Euroscreen) receptors were cultured in Dulbecco's Modified Eagle's Medium (DMEM) containing 10% Fetal Calf Serum (FCS), 100 U/ml penicillin, 0.1 mg/ml streptomycin, 0.25 μg/ml amphotericin B, 1% Minimum Essential Medium Eagle (MEM), non essential amino acid solution, 600 μg/ml G418. Cells were kept at 37° C. in a humidified incubator in an atmosphere of 5% CO2/95% air and were passaged 1:4 three times a week. Cells were plated at 1.5−2.5×10^4 cell/well on standard 96-well microplates, measurements of cytosolic calcium ion concentration ([Ca^2+]i) were carried out 1-2 days after cell plating.
Measurements of [Ca^2+]i were carried out on CHO-B1 cells stably expressing human B1 receptors, respectively. Cells were grown in standard 96-well microplates and before the measurement were loaded with a fluorescent Ca^2+-sensitive dye, fluo-4/AM (2 μM): after removing the culture medium the dye was added to the cells (dissolved in assay buffer: 145 mM NaCl, 5 mM KCl, 2 mM MgCl2, 2 mM CaCl2, 10 mM HEPES, 20 mM D-glucose, 2 mM probenecid, 100 μl/well) and cells were incubated at 37° C. in a humidified incubator in an atmosphere of 5% CO2/95% air for 40-120 min. To stop dye loading cells were washed twice with assay buffer. After washing, various concentrations of the test compounds (diluted in extracellular medium from a DMSO stock solution, final DMSO concentration was <0.1%) or buffer were added to each well depending on the experimental setup. After incubation at 37° C. for 20-25 min. baseline and agonist-evoked changes of [Ca^2+]; were measured column by column with a plate reader fluorimeter (Fluoroskan Ascent, Labsystems). Excitation and detection of emission was carried out from the bottom of the plate. Filters used for Fluo-4: excitation filter 485 nm, emission filter 538 nm. The whole measurement process was performed at 37° C. and was controlled by custom software. Inhibitory potency of the test compounds was assessed by measuring the reduction in the agonist-evoked [Ca^2+]i-elevation in the presence of different concentrations of the compounds. The agonist was LysDABK for CHO-B1 cells. Agonist was applied at an EC80 concentration; the EC80-values were derived from daily determined dose-response curves. Fluorescence data were expressed as ΔF/F (fluorescence change normalized to baseline). All treatments on a single plate were measured in multiple wells. Data from all wells with the same treatment were averaged and the average values were used for analysis. Inhibitory potency of a compound at a single concentration point was expressed as percent inhibition of the control agonist response. Sigmoidal concentration-inhibition curves were fitted to the data (derived from at least three independent experiments) and IC50-values were determined as the concentration that produces half of the maximal inhibition caused by the compound.

[2] = molecular target: T2, human recombinant bradykinin B1 receptor (Homo sapiens, UniProt P46663); test: Human recombinant bradykinin B1 receptor competitive radioligand binding; conditions: hB1 expressed in CHO cells, [3H]-[Des-Arg10] Kallidin radioligand; read-out: B1 binding
T2 construct: host or cells: CHO cells, clone hB1-A5
T2 sequence (P46663 1-353): T1 sequence (P46663 1-353)
Protocol: Assessment of Ligand Binding Affinity to B1 and B2 Receptors In Vitro by Competitive Radioligand Binding Assay
Binding assays were carried out on human recombinant bradykinin) receptors (expressed in CHO cells, hB1-A5) according to the Euroscreen Technical Data Sheet (Cat.No.:ES-091). 20 μg protein/tube was incubated with [3,4-prolyl-3,4-^3H(N)]-[Des-Arg^10] Kallidin as radioligand. Non specific binding was determined in the presence of 10 μM Lys-des-Arg^9-Bradykinin. The final incubation volume was 250 μl. Samples were incubated for 15 min. at 25° C. then were rapidly vacuum filtered through GF/B filters presoaked for at least 1 h in 0.5% PEI. Radioactivity was determined by liquid scintillation spectroscopy.
The ligand displacement by the compounds was determined using a minimum of seven concentrations in triplicate, and experiments were repeated at least two times. The specific radioligand binding is defined as the difference between total binding and the non-specific binding determined in the presence of an excess of unlabelled ligand. Results are expressed as a percent inhibition of specific binding obtained in the presence of RGH-478 or reference drugs. IC50 values (i.e. concentration of compound giving 50% inhibition of specific binding) were calculated from concentration-displacement curves by sigmoidal fitting using GraphPad Prism Software 4.0. Ki values (i.e. inhibition constants) were calculated using the Cheng-Prusoff equation. KD was determined from the Scatchard plot. (Editor-in-chief: Enna, S. J. and Williams, M. Current protocols in pharmacology vol. 1. John Wiley & sons Inc., 1998)

| Compound | IC50 [1] [nM] | Ki [2] [nM] |
| --- | --- | --- |
| Cc1nc(-c2c(Cl)c3cc(F)ccc3n2-c2ccc(CNC(=O)C3(NC(=O)c4ccnc(F)c4)CC3)cc2)no1 [Example 89, N-(1-{4-[3-Chloro-5-fluoro-2-(5-methyl-[1,2,4]oxadiazol-3-yl)-indol-1-yl]-benzylcarbamoyl}-cyclopropyl)-2-fluoro-isonicotinamide] | < 20 | < 20 |
| COc1cc(C(=O)NC2(C(=O)N[C@H](C)c3ccc(-n4c(-c5noc(C)n5)c(Cl)c5ccccc54)cc3F)CC2)on1 [Example 191, 3-Methoxy-isoxazole-5-carboxylic acid [1-((R)-1-{4-[3-chloro-2-(5-methyl-[1,2,4]oxadiazol-3-yl)-indol-1-yl]-2-fluoro-phenyl}-ethylcarbamoyl)-cyclopropyl]amide] | < 20 | < 20 |
| Cc1nc(-c2c(Cl)c3ccccc3n2-c2ccc(CNC(=O)C3(NC(=O)c4ccnc(F)c4)CC3)cc2)no1 [Example 164, N-(1-{4-[3-Chloro-2-(5-methyl-[1,2,4]oxadiazol-3-yl)-indol-1-yl]-benzylcarbamoyl}-cyclopropyl)-2-fluoro-isonicotinamide] | < 20 | < 20 |
| Cc1nc(-c2c(Cl)c3ccccc3n2-c2ccc(CNC(=O)C3(NC(=O)c4cccs4)CC3)cc2)no1 [Example 172, Thiophene-2-carboxylic acid (1-{4-[3-chloro-2-(5-methyl-[1,2,4]oxadiazol-3-yl)-indol-1-yl]-benzylcarbamoyl}-cyclopropyl)-amide] | < 20 | < 20 |
| Cc1nc(-c2c(Cl)c3ccccc3n2-c2ccc(CNC(=O)C3(NC(=O)c4cccc(Br)n4)CC3)cc2)no1 [Example 157, 6-Bromo-pyridine-2-carboxylic acid (1-{4-[3-chloro-2-(5-methyl-[1,2,4]oxadiazol-3-yl)-indol-1-yl]-benzylcarbamoyl}-cyclopropyl)-amide] | 20 to 100 | < 20 |
| COC(=O)c1c(Cl)c2ccccc2n1-c1ccc(CNC(=O)C2(NC(=O)c3cc(OC)no3)CC2)cc1 [Example 11, 3-Chloro-1-{4-[({1-[(3-methoxy-isoxazole-5-carbonyl)-amino]-cyclopropane-carbonyl}-amino)-methyl]-phenyl}-1H-indole-2-carboxylic acid methyl ester] | < 20 | < 20 |
| Cn1nnc(-c2c(Cl)c3cc(F)ccc3n2-c2ccc(CNC(=O)C3(NC(=O)C(F)(F)F)CC3)c(F)c2)n1 [Example 19] | < 20 | < 20 |
| Cc1nc(-c2cc3cc(F)ccc3n2-c2ccc(CNC(=O)C3(NC(=O)c4cncc(C(F)(F)F)c4)CC3)cc2)no1 [Example 46, N-(1-{4-[5-Fluoro-2-(5-methyl-[1,2,4]oxadiazol-3-yl)-indol-1-yl]-benzylcarbamoyl}-cyclopropyl)-5-trifluoromethyl-nicotinamide] | < 20 | < 20 |
| Cc1nc(-c2c(Cl)c3ccccc3n2-c2ccc(CNC(=O)C3(NC(=O)C4CCCO4)CC3)cc2)no1 (stereo not shown) [Example 136, Tetrahydro-furan-2-carboxylic acid (1-{4-[3-chloro-2-(5-methyl-[1,2,4]oxadiazol-3-yl)-indol-1-yl]-benzylcarbamoyl}-cyclopropyl)-amide] | 20 to 100 | 20 to 100 |
| Cc1noc(-c2c(Cl)c3ccccc3n2-c2ccc(CNC(=O)C3(NC(=O)C(F)(F)F)CC3)cc2)n1 [Example 194, 1-(2,2,2-Trifluoro-acetylamino)-cyclopropanecarboxylic acid 4-[3-chloro-2-(3-methyl-[1,2,4]oxadiazol-5-yl)-indol-1-yl]-benzylamide] | < 20 | < 20 |
| COc1ccc2c(c1)c(Cl)c(-c1nc(C)no1)n2-c1ccc(CNC(=O)C2(NC(=O)c3cccnc3F)CC2)cc1 [Example 118, N-(1-{4-[3-Chloro-5-methoxy-2-(3-methyl-[1,2,4]oxadiazol-5-yl)-indol-1-yl]-benzylcarbamoyl}-cyclopropyl)-2-fluoro-nicotinamide] | < 20 | < 20 |
| CNC(=O)c1c(Cl)c2ccccc2n1-c1ccc(C(C)NC(=O)C2(NC(=O)C(F)(F)F)CC2)cc1 (stereo not shown) [Example 32, 3-Chloro-1-[4-(1-{[1-(2,2,2-trifluoro-acetylamino)-cyclopropanecarbonyl]-amino}-ethyl)-phenyl]-1H-indole-2-carboxylic acid methylamide] | < 20 | < 20 |
| COc1cc(C(=O)NC2(C(=O)NCc3ccc(-n4c(-c5nc(C)no5)cc5ccccc54)cc3)CC2)on1 [Example 196, 3-Methoxy-isoxazole-5-carboxylic acid (1-{4-[2-(3-methyl-[1,2,4]oxadiazol-5-yl)-indol-1-yl]-benzylcarbamoyl}-cyclopropyl)-amide] | 20 to 100 | < 20 |
| COc1ccc2c(c1)c(Cl)c(-c1nc(C)no1)n2-c1ccc(CNC(=O)C2(NC(=O)c3cncc(C(F)(F)F)c3)CC2)cc1 [Example 50, N-(1-{4-[3-Chloro-5-methoxy-2-(3-methyl-[1,2,4]oxadiazol-5-yl)-indol-1-yl]-benzyl-carbamoyl}-cyclopropyl)-5-trifluoromethyl-nicotinamide] | < 20 | < 20 |
| Cc1nc(-c2cc3cc(Cl)ccc3n2-c2ccc(CNC(=O)C3(NC(=O)c4cncc(C(F)(F)F)c4)CC3)cc2)no1 [Example 128, N-(1-{4-[5-Chloro-2-(5-methyl-[1,2,4]oxadiazol-3-yl)-indol-1-yl]-benzylcarbamoyl}-cyclopropyl)-5-trifluoromethyl-nicotinamide] | < 20 | < 20 |
| COc1ccc2c(c1)cc(C#N)n2-c1ccc(CNC(=O)C2(NC(=O)c3cc(OC)no3)CC2)cc1 [Example 48, 3-Methoxy-isoxazole-5-carboxylic acid {1-[4-(2-cyano-5-methoxy-indol-1-yl)-benzylcarbamoyl]-cyclopropyl}-amide] | < 20 | < 20 |
| Cc1nc(-c2c(Cl)c3ccccc3n2-c2ccc(CNC(=O)C3(NC(=O)c4scnc4C)CC3)cc2)no1 [Example 149, 4-Methyl-thiazole-5-carboxylic acid (1-{4-[3-chloro-2-(5-methyl-[1,2,4]oxadiazol-3-yl)-indol-1-yl]-benzylcarbamoyl}-cyclopropyl)-amide] | 20 to 100 | < 20 |
